Experimental data published in patent US11027021B2, “Combinations of PBD-based antibody drug conjugates with Bcl-2 inhibitors” (Seagen Inc., priority 2016, dated 2021).

Assays:
RL cells = experiment: RL subcutaneous xenograft survival experiment; assay type: in vivo; conditions: ABT-199 alone 100 mg/kg daily by oral gavage for 14 days, SCID mice
Procedure: (§1) Tumor growth was monitored throughout the course of the study with bilateral vernier caliper measurements, and mean tumor volumes were calculated using the equation (0.5×[length×width^2]). […] Mice with advanced tumor burden were sacrificed upon reaching tumor volumes of greater than 400 mm^3 or showing symptoms of hind limb paralysis, cranial swelling, and/or moribundity.

MOLM-13 cells = experiment: MOLM-13 subcutaneous xenograft survival experiment; assay type: in vivo; conditions: ABT-199 alone 100 mg/kg daily by oral gavage for 14 days; MOLM-13 xenograft, SCID mice
Procedure: as §1

For `CC1(C)CCC(CN2CCN(c3ccc(C(=O)NS(=O)(=O)c4ccc(NCC5CCOCC5)c([N+](=O)[O-])c4)c(Oc4cnc5[nH]ccc5c4)c3)CC2)=C(c2ccc(Cl)cc2)C1` [ABT-199, 2-(1H-pyrrolo[2,3-b]pyridin-5-yloxy)-4-(4-((2-(4-chlorophenyl)-4,4-dimethylcyclohex-1-enyl)methyl)piperazin-1-yl)-N-(3-nitro-4-(((tetrahydro-2H-pyran-4-yl)methyl)amino)phenylsulfonyl)benzamide], the “rate of survival by day 30” value (RL cells) was 0% and the “rate of survival by day 20” value (MOLM-13 cells) was 0%.
